Laboratory results taken from US20260285850A1, “SUBSTITUTED OXAZOLIDINONES AND IMIDAZOLINONES AS HERBICIDES” (FMC CORPORATION, priority 2023, published 2026).

Columns and labels:
Type in all cases: in vivo
[1] = tested on: blackgrass (Alopecurus myosuroides); experiment: Test A preemergence soil spray, visual injury rating 0-100; details: 10 days, 0 = no effect, 100 = complete control
Method in brief: (§1)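 Greenhouse test: loam/sand pots received a surfactant-containing formulation, as a preemergence directed soil spray or a postemergence spray on young plants. Injury was judged visually at day 10 relative to untreated controls.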

corn (Zea mays) [2] = experiment: as above; details: 10 days, 0 = no effect, 100 = complete control
Method in brief: as §1

[3] = tested on: foxtail, giant (giant foxtail, Setaria faberi); experiment: as above; details: 10 days, 0 = no effect, 100 = complete control
Method in brief: as §1

[4] = tested on: goosegrass (Eleusine indica); experiment: as above; details: 10 days, 0 = no effect, 100 = complete control
Method in brief: as §1

kochia (Bassia scoparia) [5] = experiment: as above; details: 10 days, 0 = no effect, 100 = complete control
Method in brief: as §1

[6] = tested on: oat, wild (wild oat, Avena fatua); experiment: as above; details: 10 days, 0 = no effect, 100 = complete control
Method in brief: as §1

[7] = tested on: palmer (palmer amaranth, palmer pigweed, Amaranthus palmeri); experiment: as above; details: 10 days, 0 = no effect, 100 = complete control
Method in brief: as §1

[8] = tested on: ragweed (common ragweed, Ambrosia artemisiifolia); experiment: as above; details: 10 days, 0 = no effect, 100 = complete control
Method in brief: as §1

[9] = tested on: ryegrass, Italian (italian ryegrass, Lolium multiflorum); experiment: as above; details: 10 days, 0 = no effect, 100 = complete control
Method in brief: as §1

soybean (Glycine max) [10] = experiment: as above; details: 10 days, 0 = no effect, 100 = complete control
Method in brief: as §1

[11] = tested on: wheat (Triticum aestivum); experiment: as above; details: 10 days, 0 = no effect, 100 = complete control
Method in brief: as §1

[12] = tested on: blackgrass (Alopecurus myosuroides); experiment: Test A postemergence application, visual injury rating 0-100; details: Postemergence, 10 days; for Blackgrass plant response rating (0 to 100 scale): 0 is no effect, 100 is complete control
Method in brief: as §1

corn (Zea mays) [13] = experiment: as above; details: Postemergence, 10 days, 0 is no effect, 100 is complete control
Method in brief: as §1

[14] = tested on: foxtail, giant (giant foxtail, Setaria faberi); experiment: as above; details: 10 days; for Foxtail, Giant plant response rating (0 to 100 scale): 0 is no effect, 100 is complete control
Method in brief: as §1

[15] = tested on: galium (catchweed bedstraw, Galium aparine); experiment: as above; details: Postemergence, 10 days; for Galium plant response rating (0 to 100 scale): 0 is no effect, 100 is complete control
Method in brief: as §1

[16] = tested on: goosegrass (Eleusine indica); experiment: as above; details: 10 days; for Goosegrass plant response rating (0 to 100 scale): 0 is no effect, 100 is complete control
Method in brief: as §1

[17] = tested on: horseweed (Erigeron canadensis); experiment: as above; details: Postemergence, 10 days; for Horseweed plant response rating (0 to 100 scale): 0 is no effect, 100 is complete control
Method in brief: as §1

kochia (Bassia scoparia) [18] = experiment: as above; details: Postemergence, 10 days; for Kochia plant response rating (0 to 100 scale): 0 is no effect, 100 is complete control
Method in brief: as §1

[19] = tested on: oat, wild (wild oat, Avena fatua); experiment: as above; details: Postemergence, 10 days, 0 is no effect, 100 is complete control
Method in brief: as §1

[20] = tested on: palmer (palmer amaranth, palmer pigweed, Amaranthus palmeri); experiment: as above; details: Postemergence, 10 days; for Amaranth, Palmer / Pigweed, Palmer plant response rating (0 to 100 scale): 0 is no effect, 100 is complete control
Method in brief: as §1

[21] = tested on: ragweed (common ragweed, Ambrosia artemisiifolia); experiment: as above; details: Postemergence, 10 days; for Ragweed plant response rating (0 to 100 scale): 0 is no effect, 100 is complete control
Method in brief: as §1

[22] = tested on: ryegrass, Italian (italian ryegrass, Lolium multiflorum); experiment: as above; details: Postemergence, 10 days; for Ryegrass, Italian plant response rating (0 to 100 scale): 0 is no effect, 100 is complete control
Method in brief: as §1

soybean (Glycine max) [23] = experiment: as above; details: Postemergence, 10 days, 0 is no effect, 100 is complete control
Method in brief: as §1

[24] = tested on: wheat (Triticum aestivum); experiment: as above; details: Postemergence, 10 days, 0 is no effect, 100 is complete control
Method in brief: as §1

[25] = tested on: barnyardgrass (Echinochloa crusgalli); experiment: Test B flooded paddy test, visual plant response rating 0-100; details: 250 g ai/ha, Flood, applied to paddy water, evaluated after 13 days
Method in brief: (§2)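 Plants were grown to the 2-leaf stage, then pots were flooded to 3 cm above the soil and compound was applied directly to the paddy water, with that depth kept throughout.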

[26] = tested on: ducksalad (Heteranthera limosa); experiment: as above; details: 250 g ai/ha, Flood, applied to paddy water, evaluated after 13 days
Method in brief: as §2

rice (Oryza sativa) = experiment: as above; details: 250 g ai/ha, Flood, applied to paddy water, evaluated after 13 days
Method in brief: as §2

[27] = tested on: sedge, umbrella (small-flower umbrella sedge, Cyperus difformis); experiment: as above; details: 250 g ai/ha, Flood, applied to paddy water, evaluated after 13 days
Method in brief: as §2

CONC(=O)C1C=CC(NC(=O)C2(C)CN(c3cc(F)cc(F)c3)C(=O)O2)C1 (centres unmarked) [Compound 25]
Blackgrass plant response rating (0 to 100 scale) ([1]; 125 g ai/ha): 40
Blackgrass plant response rating (0 to 100 scale) ([1]; 500 g ai/ha): 90
Corn plant response rating (0 to 100 scale) (corn (Zea mays) [2]; 125 g ai/ha): 50
Corn plant response rating (0 to 100 scale) (corn (Zea mays) [2]; 500 g ai/ha): 90
Foxtail, Giant plant response rating (0 to 100 scale) ([3]; 125 g ai/ha): 20
Foxtail, Giant plant response rating (0 to 100 scale) ([3]; 500 g ai/ha): 90
Goosegrass plant response rating (0 to 100 scale) ([4]; 125 g ai/ha): 30
Goosegrass plant response rating (0 to 100 scale) ([4]; 500 g ai/ha): 100
Kochia plant response rating (0 to 100 scale) (kochia (Bassia scoparia) [5]; 125 g ai/ha): 30
Kochia plant response rating (0 to 100 scale) (kochia (Bassia scoparia) [5]; 500 g ai/ha): 90
Oat, Wild plant response rating (0 to 100 scale) ([6]; 125 g ai/ha): 80
Oat, Wild plant response rating (0 to 100 scale) ([6]; 500 g ai/ha): 90
Amaranth, Palmer plant response rating (0 to 100 scale) ([7]; 125 g ai/ha): 10
Amaranth, Palmer plant response rating (0 to 100 scale) ([7]; 500 g ai/ha): 80
Ragweed plant response rating (0 to 100 scale) ([8]; 125 g ai/ha): 0
Ragweed plant response rating (0 to 100 scale) ([8]; 500 g ai/ha): 30
Ryegrass, Italian plant response rating (0 to 100 scale) ([9]; 125 g ai/ha): 60
Ryegrass, Italian plant response rating (0 to 100 scale) ([9]; 500 g ai/ha): 90
Soybean plant response rating (0 to 100 scale) (soybean (Glycine max) [10]; 125 g ai/ha): 0
Soybean plant response rating (0 to 100 scale) (soybean (Glycine max) [10]; 500 g ai/ha): 70
Wheat plant response rating (0 to 100 scale) ([11]; 125 g ai/ha): 60
Wheat plant response rating (0 to 100 scale) ([11]; 500 g ai/ha): 100
Blackgrass plant response rating (0 to 100 scale) ([12]; 125 g ai/ha): 80
Blackgrass plant response rating (0 to 100 scale) ([12]; 500 g ai/ha): 90
Corn plant response rating (0 to 100 scale) (corn (Zea mays) [13]; 125 g ai/ha): 100
Corn plant response rating (0 to 100 scale) (corn (Zea mays) [13]; 500 g ai/ha): 100
Foxtail, Giant plant response rating (0 to 100 scale) ([14]; 125 g ai/ha): 90
Foxtail, Giant plant response rating (0 to 100 scale) ([14]; 500 g ai/ha): 90
Galium plant response rating (0 to 100 scale) ([15]; 125 g ai/ha): 80
Galium plant response rating (0 to 100 scale) ([15]; 500 g ai/ha): 80
Goosegrass plant response rating (0 to 100 scale) ([16]; 125 g ai/ha): 90
Goosegrass plant response rating (0 to 100 scale) ([16]; 500 g ai/ha): 90
Horseweed plant response rating (0 to 100 scale) ([17]; 125 g ai/ha): 60
Horseweed plant response rating (0 to 100 scale) ([17]; 500 g ai/ha): 80
Kochia plant response rating (0 to 100 scale) (kochia (Bassia scoparia) [18]; 125 g ai/ha): 80
Kochia plant response rating (0 to 100 scale) (kochia (Bassia scoparia) [18]; 500 g ai/ha): 90
Oat, Wild plant response rating (0 to 100 scale) ([19]; 125 g ai/ha): 90
Oat, Wild plant response rating (0 to 100 scale) ([19]; 500 g ai/ha): 100
Amaranth, Palmer / Pigweed, Palmer plant response rating (0 to 100 scale) ([20]; 125 g ai/ha): 90
Amaranth, Palmer / Pigweed, Palmer plant response rating (0 to 100 scale) ([20]; 500 g ai/ha): 90
Ragweed plant response rating (0 to 100 scale) ([21]; 125 g ai/ha): 60
Ragweed plant response rating (0 to 100 scale) ([21]; 500 g ai/ha): 80
Ryegrass, Italian plant response rating (0 to 100 scale) ([22]; 125 g ai/ha): 60
Ryegrass, Italian plant response rating (0 to 100 scale) ([22]; 500 g ai/ha): 60
Soybean plant response rating (0 to 100 scale) (soybean (Glycine max) [23]; 125 g ai/ha): 70
Soybean plant response rating (0 to 100 scale) (soybean (Glycine max) [23]; 500 g ai/ha): 80
Wheat plant response rating (0 to 100 scale) ([24]; 125 g ai/ha): 80
Wheat plant response rating (0 to 100 scale) ([24]; 500 g ai/ha): 80

CNC(=O)C1C=CC(NC(=O)C2(C)CN(c3cc(F)cc(F)c3)C(=O)O2)C1 (centres unmarked) [Compound 26]
Blackgrass plant response rating (0 to 100 scale) ([1]; 1000 g ai/ha): 100
Foxtail, Giant plant response rating (0 to 100 scale) ([3]; 1000 g ai/ha): 100
Goosegrass plant response rating (0 to 100 scale) ([4]; 1000 g ai/ha): 100
Kochia plant response rating (0 to 100 scale) (kochia (Bassia scoparia) [5]; 1000 g ai/ha): 90
Amaranth, Palmer / Pigweed, Palmer plant response rating (0 to 100 scale) ([7]; 1000 g ai/ha): 100
Ragweed plant response rating (0 to 100 scale) ([8]; 1000 g ai/ha): 90
Ryegrass, Italian plant response rating (0 to 100 scale) ([9]; 1000 g ai/ha): 100
Blackgrass plant response rating ([12]; 1000 g ai/ha, 0 to 100 scale): 90
Foxtail, Giant plant response rating ([14]; 1000 g ai/ha, 0 to 100 scale): 90
Galium plant response rating ([15]; 1000 g ai/ha, 0 to 100 scale): 70
Goosegrass plant response rating ([16]; 1000 g ai/ha, 0 to 100 scale): 90
Horseweed plant response rating ([17]; 1000 g ai/ha, 0 to 100 scale): 70
Kochia plant response rating (kochia (Bassia scoparia) [18]; 1000 g ai/ha, 0 to 100 scale): 80
Amaranth, Palmer plant response rating ([20]; 1000 g ai/ha, 0 to 100 scale): 90
Ragweed plant response rating ([21]; 1000 g ai/ha, 0 to 100 scale): 50
Ryegrass, Italian plant response rating ([22]; 1000 g ai/ha, 0 to 100 scale): 70
Plant response rating, Barnyardgrass (0 to 100 scale, 0 is no effect and 100 is complete control) [25]: 45
Plant response rating, Ducksalad (0 to 100 scale, 0 is no effect and 100 is complete control) [26]: 95
Plant response rating, Rice (0 to 100 scale, 0 is no effect and 100 is complete control) (rice (Oryza sativa)): 35
Plant response rating, Sedge, Umbrella (0 to 100 scale, 0 is no effect and 100 is complete control) [27]: 95
